{
  "source": "paper PMC12655351",
  "about": "“Synthesis and Anticancer Activity Evaluation of New 5-((5-Nitrofuran-2-yl)allylidene)-2-thioxo-4-thiazolidinones” (Pharmaceuticals, 2025)",
  "key": {"M14": {"system": "M14", "conditions": "human, 48 h"}, "[1]": {"system": "reactive oxygen species in MDA-MB-231 cells", "assay": "H2DCFDA and DAPI double staining", "format": "cell-based, human", "conditions": "MDA-MB-231, 5 and 10 μM, one hour", "procedure": "(§1) The double staining method was applied to analyze novel compounds’ effects on the generation of reactive oxygen species. The first dye, H2DCFDA, after conversion to DCF, serves as an indicator of oxidative stress (green fluorescence), while the second one, known as DAPI, was applied to showcase nuclear genetic material of MCF-7 and MDA-MB-231 breast cancer cells (blue fluorescence). The concentrations of compounds were 1 and 5 μM for the MCF-7 cell line and 5 and 10 μM for the MDA-MB-231 cell line. The incubation time after treatment was one hour in both cell lines.\n(§2) The influences of 2b, 12b, 14b, and doxorubicin (1 and 5 µM and 5 and 10 µM for MCF-7 and MDA-MB-231 cell lines, respectively) on the generation of reactive oxygen species (ROS) were analyzed. Cells were seeded in 6-well culture plates at 1 × 10^5 cells per well in 1 mL of medium and then treated with compounds for 1 h and then washed with PBS. Double staining was conducted with 20 µM 2′,7′-dichlorodihydrofluorescein diacetate (H2DCFDA) reagent (Thermo Fisher Scientific, Eugene, OR, USA), which is colorless, and is cleaved by intracellular esterases and oxidized to the highly fluorescent 2′,7′-dichlorofluorescein (DCF), and 10 µg/mL of the fluorescent dye 4′,6-diamidino-2-phenylindole (DAPI) (Sigma-Aldrich, St. Louis, MO, USA), which visualizes the nuclear DNA of cells. A Nikon ECLIPSE Ti fluorescence microscope (Nikon, Tokyo, Japan) was used to obtain results which were analyzed using ImageJ software 1.54k (Bethesda, MD, USA). The fluorescence intensity of the DCF reagent was evaluated relative to the control. The number of analyzed cells was above 100."}, "[2]": {"system": "reactive oxygen species in MCF-7 cells", "assay": "H2DCFDA and DAPI double staining", "format": "cell-based, human", "conditions": "MCF-7, 1 and 5 μM, one hour", "procedure": "as §1, §2"}, "MDA-MB-468": {"system": "MDA-MB-468", "conditions": "human, 48 h"}, "[3]": {"system": "mitochondrial membrane potential (ΔΨm) of MDA-MB-231 breast cancer cells", "assay": "JC-1 flow cytometry", "format": "cell-based, human", "conditions": "24 h", "procedure": "(§3) This method involves marking cells with fully functional mitochondria with red fluorescence due to the accumulation of the dye in hyperpolarized mitochondrial membrane. In case of a damaged membrane, the dye decomposes into monomers, emitting green fluorescence. […] For MDA-MB-231 cells, the values were as follows: 4.25% for 5 μM and 20.95% for 10 μM concentration. The obtained results signify the compound’s capability to decrease mitochondrial potential on both cell lines at a higher concentration (Figure 6).\n(§4) The mitochondrial membrane potential (ΔΨm) was analyzed by using the JC-1 MitoScreen kit (BD Biosciences, San Diego, CA, USA). The tested compounds and reference drug were used in 1 and 5 µM concentrations on the MCF-7 cell line and 5 and 10 µM on the MDA-MB-231 cell line. After 24 h of incubation with the tested compounds, the assay was performed as described in the literature. The assay was performed using a flow cytometer (BD FACSCanto II, Becton Dickinson Biosciences Systems, San Jose, CA, USA), and results were obtained using FACSDiva software (version 6.1.3, BD Biosciences Systems, San Jose, CA, USA)."}, "[4]": {"system": "mitochondrial membrane potential (ΔΨm) of MCF-7 breast cancer cells", "assay": "JC-1 flow cytometry", "format": "cell-based, human", "conditions": "24 h", "procedure": "as §3, §4"}},
  "data": [
    {"smiles": "O=C(O)CCCCCN1C(=O)/C(=C/C=C/c2ccc([N+](=O)[O-])o2)SC1=S", "note": "[14b, 6-((Z)-5-((E)-3-(5-nitrofuran-2-yl)allylidene)-4-oxo-2-thioxothiazolidin-3-yl)hexanoic acid]", "values": [
      {"measurement": "CC50", "setting": "M14", "result": 3.23, "unit": "µM"},
      {"measurement": "generation of reactive oxygen species", "setting": "[1]", "result": "highest generation of ROS"},
      {"measurement": "generation of reactive oxygen species", "setting": "[2]", "result": "highest generation of ROS"},
      {"measurement": "CC50", "setting": "MDA-MB-468", "result": 4.29, "unit": "µM"},
      {"measurement": "Decreased Δψ (decrease in mitochondrial potential)", "setting": "[3]; MDA-MB-231, 5 μM", "result": 4.25, "unit": "%"},
      {"measurement": "Decreased Δψ (decrease in mitochondrial potential)", "setting": "[3]; MDA-MB-231, 10 μM", "result": 20.95, "unit": "%"},
      {"measurement": "Decreased Δψ (decrease in mitochondrial potential)", "setting": "[4]; MCF-7, 1 μM", "result": 8.75, "unit": "%"},
      {"measurement": "Decreased Δψ (decrease in mitochondrial potential)", "setting": "[4]; MCF-7, 5 μM", "result": 20.25, "unit": "%"}
    ]}
  ]
}
